Among the data in PubChem BioAssay (NCI) are GI50 and TGI values, retold here.

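How tested: cells in 96-well plates exposed to compound for 48 hours at five concentrations. The concentration for 50% growth inhibition is given as GI50. TGI denotes the concentration required for complete inhibition of growth.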 Bounds are passed on as bounds.

Some test systems named below: CAKI-1 renal; SNB-19 CNS; MDA-MB-435; OVCAR-4 ovarian; SK-MEL-28 melanoma; SN12C renal; SK-MEL-2 melanoma; A498 renal; HOP-62 NSCLC; MALME-3M melanoma.
What all share (test): NCI anticancer screen, dose series, 48 h

In the case of `COc1ccc(Nc2nc3cc(N)cc(N)c3nc2-c2ccccc2)cc1OC`, the GI50 is 18.3 µM in the test with CAKI-1 renal; 35.4 µM in the test with SNB-19 CNS; 16.3 µM with MDA-MB-435; 18.7 µM in the test on OVCAR-4 ovarian; 21.5 µM with SK-MEL-28 melanoma; 16.7 µM in the test with SN12C renal. Besides, the GI50 with SK-MEL-2 melanoma is 27.2 µM; with A498 renal it was 11.7 µM; in the test with HOP-62 NSCLC, 34.8 µM; in the test with MALME-3M melanoma it was 15.7 µM. Further, the TGI in the test with CAKI-1 renal was 66 µM; with SNB-19 CNS, more than 100 µM; in the test with MDA-MB-435 it was 32.1 µM; with OVCAR-4 ovarian, 52.1 µM; with SK-MEL-28 melanoma, 49.7 µM; in the test with SN12C renal, 44.1 µM. For the same compound, the TGI in the test with SK-MEL-2 melanoma was more than 100 µM; in the test with A498 renal, 55.7 µM; with HOP-62 NSCLC, more than 100 µM; in the test with MALME-3M melanoma it was 35.7 µM.
